In publication PMC8398432 (Molecules, 2021):
Like-named read-outs stand apart in the source and are kept apart here.

Tests used:
hTRPM8 = test system: hTRPM8; set-up: method as in PMID 31850745; settings: cited from earlier work
mouse α4β2 nAChRs = target: T1, mouse α4β2 nAChRs (Mus musculus, UniProt O70174+Q9ERK7); experiment: Calcium 6 Ca2+ flux assay, neuro-2a cells transiently transfected with α4β2 nAChRs; type: cell-based
T1 construct: expressed in transfected cells; host or cells: mouse neuroblastoma-2a (neuro-2a) cells, transient transfection with Lipofectamine 3000
T1 sequence (O70174 31-629): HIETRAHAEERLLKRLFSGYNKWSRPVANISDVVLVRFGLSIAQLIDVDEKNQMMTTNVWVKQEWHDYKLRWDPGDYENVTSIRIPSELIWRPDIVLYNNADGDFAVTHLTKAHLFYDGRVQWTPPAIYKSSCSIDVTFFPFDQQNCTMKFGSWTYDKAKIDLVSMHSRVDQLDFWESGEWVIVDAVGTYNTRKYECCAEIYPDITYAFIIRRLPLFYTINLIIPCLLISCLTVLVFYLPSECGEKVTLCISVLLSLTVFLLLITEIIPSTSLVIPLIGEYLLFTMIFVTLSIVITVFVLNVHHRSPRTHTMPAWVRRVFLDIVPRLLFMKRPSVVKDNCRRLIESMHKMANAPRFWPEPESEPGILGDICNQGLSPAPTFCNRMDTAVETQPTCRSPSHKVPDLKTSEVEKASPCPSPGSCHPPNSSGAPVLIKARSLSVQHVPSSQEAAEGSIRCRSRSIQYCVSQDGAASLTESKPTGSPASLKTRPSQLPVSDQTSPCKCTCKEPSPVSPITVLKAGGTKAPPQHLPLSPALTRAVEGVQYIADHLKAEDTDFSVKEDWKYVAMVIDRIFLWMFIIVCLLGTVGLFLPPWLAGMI
T1 sequence (Q9ERK7 26-501): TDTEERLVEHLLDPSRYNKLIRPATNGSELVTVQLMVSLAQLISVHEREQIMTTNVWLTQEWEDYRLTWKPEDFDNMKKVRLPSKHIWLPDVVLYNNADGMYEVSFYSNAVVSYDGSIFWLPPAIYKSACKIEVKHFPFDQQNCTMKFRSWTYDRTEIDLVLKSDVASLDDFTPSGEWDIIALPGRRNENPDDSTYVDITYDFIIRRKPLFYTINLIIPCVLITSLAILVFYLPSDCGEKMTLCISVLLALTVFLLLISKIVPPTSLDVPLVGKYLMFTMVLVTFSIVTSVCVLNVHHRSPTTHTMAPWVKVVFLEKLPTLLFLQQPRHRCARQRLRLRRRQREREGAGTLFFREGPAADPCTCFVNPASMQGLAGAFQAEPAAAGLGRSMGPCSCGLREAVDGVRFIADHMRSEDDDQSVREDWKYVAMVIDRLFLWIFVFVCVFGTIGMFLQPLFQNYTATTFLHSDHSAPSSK

C57BL/6J mice = experiment: Conditioned place preference (CPP) assay; type: in vivo, mouse
Experimental: CPP assays were completed in a three-chamber spatial place preference chamber (Harvard Apparatus, PanLab, dimensions: 47.5 × 27.5 × 47.5 cm) using male and female C57BL/6J mice. Time in chambers was recorded by motion tracking software (SMART 3.0). […] On day 1, a pre-test was completed wherein mice were placed in the central chamber and allowed free access to the apparatus for 20 min. Mice that spent >65% of the test in one chamber were excluded and the remaining mice were counterbalanced. For counterbalancing, mice were separated into groups of approximately equal bias, similar to previously published CPP methods. No exclusions were necessary for these studies. Following counterbalancing, no initial biases were noted. The mice received their designated drug injections on days 2, 4, 6, and 8, and received saline injections on days 3, 5, 7, and 9. Each conditioning period lasted 20 min. On day 10, a post-test was completed whereby the mice were again placed in the central chamber and allowed free access for 20 min. In total, 5 male and 5 female C57BL/6J mice, 3–5 months old, were used in the CPP assays for each treatment group. Time spent in the saline-paired chamber was subtracted from time spent in the drug-paired chamber to score the pre-test and post-test. CPP score (or change from baseline) was determined by subtracting the pre-test score from the post-test score. A significant positive CPP score is indicative of reward-related behavior, while a significant reduction is indicative of aversion-related behavior.
No sex differences were observed and data for males and females were combined (see Results for specifics). Data are expressed as a change in baseline preference, which was analyzed using a one-way ANOVA with a post hoc Tukey.

MDR1 = experiment: in vitro; settings: dog; for efflux ratio at 120 min, 5 μM: MDCK-MDR1, pH 7.4; for recovery at 120 min, 5 μM: MDCK-MDR1, pH 7.4, Recovery (%), pH 7.4, 120 minutes
Experimental: (§1) MDR1-MDCK Permeability. Pharmacokinetic experiments with compounds were performed by Absorption Systems (Exton, PA, USA). MDR1-MDCK cell monolayers were grown to confluence on collagen-coated, microporous membranes in 12-well assay plates. The permeability assay buffer was Hanks’ balanced salt solution containing 10 mM HEPES and 15 mM glucose at a pH of 7.4. The buffer in the receiver chamber also contained 1% bovine serum albumin. The dosing solution concentration was 5 […]
(§2) μM of test article in the assay buffer. Cell monolayers were dosed on the apical side (A-to-B) or basolateral side (B-to-A) and incubated at 37°C with 5% CO2 in a humidified incubator. Samples were […]
(§3) chambers at 0 and 120 minutes; samples were taken from the receiver chambers at 120 minutes. Each determination was performed in duplicate. The flux of lucifer yellow was also measured post-experimentally for each monolayer to ensure no damage was inflicted to the cell monolayers during the flux period. All samples were assayed by LC-MS/MS using electrospray ionization. Analytical conditions were carried out as previously described (REF:Journigan ACS CN 2020). The apparent permeability (Papp) and percent recovery were calculated as follows:
(§4) Papp = (dCr /dt) × Vr/(A × C0) (1)
(§5) Percent Recovery = 100 × ((Vr × Crfinal) + (Vd × Cd final))/(Vd × C0) (2) […]
(§6) dCr /dt is the slope of the cumulative receiver concentration versus time in M sµ -1;
(§7) Vr is the volume of the receiver compartment in cm3;
(§8) Vd is the volume of the donor compartment in cm3;
(§9) A is the area of the insert (1.13 cm2 for 12-well);
(§10) C0 is the measured concentration of the donor chamber at time 0 in μM;
(§11) Crfinal is the cumulative receiver concentration in μM at the end of the incubation period; Cdfinal is the concentration of the donor in μM at the end of the incubation period.
(§12) Efflux ratio (ER) is defined as Papp (B-to-A) / Papp (A-to-B).
(§13) Brain Penetration Potential Classification:
(§14) Papp (A-to-B) ≥ 3.0 and ER < 3.0: High
(§15) Papp (A-to-B) ≥ 3.0 and 10 > ER ≥ 3.0: Moderate

[1] = test system: MDR1-MDCK cell monolayers; experiment: in vitro
Experimental: as §1, §2, §3, §4, §5, §6, §7, §8, §9, §10, §11, §12, §13, §14, §15

[2] = Stability in mouse liver microsomes; type: in vitro ADME
Experimental: Mouse Liver Microsome Assays. These assays were carried out as detailed previously.

[3] = reported; ref 1 (supplement); cited from earlier work
[4] = in the presence of 100 µM nicotine

O=C(NC1CCCCC1)c1ccc(-c2ccccc2)cc1 [VBJ032]
IC50 (hTRPM8): 49000 ± 1000 nM
concentration at which maximum increase occurs (mouse α4β2 nAChRs; [4]): 50 µM

O=C(NC1CCCCCCC1)c1ccc(-c2ccccc2)cc1 [VBJ051]
IC50 (hTRPM8): 62 ± 1 nM
concentration at which maximum increase occurs (mouse α4β2 nAChRs; [4]): 50 µM

O=C(NC(C1CCCCC1)C1CCCCC1)c1ccc(-c2ccccc2)cc1 [VBJ098]
activity as an agonist, PM, or antagonist (mouse α4β2 nAChRs; α4β2 nAChRs): no activity

O=C(NC1CCC2CCCCC2C1)c1ccc(-c2ccccc2)cc1 (stereo not drawn) [VBJ104]
reward-related behavior (in words) (C57BL/6J mice; 0.5 mg/kg nicotine plus 0.5 mg/kg VBJ104, compared to nicotine, p < 0.05): significant increase in reward-related behavior
reward-related behavior (in words) (C57BL/6J mice; 0.5 mg/kg nicotine plus 1.0 mg/kg VBJ104, p < 0.0001 vs saline, not vs nicotine alone): significant CPP compared to saline
CPP score (C57BL/6J mice; female mice, 0.5 mg/kg nicotine plus 0.5 mg/kg VBJ104, intraperitoneal): 269.8
CPP score (C57BL/6J mice; male mice, 0.5 mg/kg nicotine plus 0.5 mg/kg VBJ104, intraperitoneal): 261.5
efflux ratio at 120 min, 5 μM (MDR1): 0.685
Papp at 120 min, 5 μM (MDR1; MDCK-MDR1, pH 7.4, Papp R2): 1.67 ×10⁻⁶ cm/s
Papp at 120 min, 5 μM (MDR1; MDCK-MDR1, pH 7.4, Papp average): 1.79 ×10⁻⁶ cm/s
recovery at 120 min, 5 μM (MDR1; A-to-B, 5 μM): 70.8%
recovery at 120 min, 5 μM (MDR1; B-to-A, 5 μM): 86.9%
Brain Penetration Classification ([1]; MDCK-MDR1): Low
MDR1-MDCK permeability efflux ratio (in words) ([1]; MDCK-MDR1): low
Papp average ([1]; dog, MDCK-MDR1, 120 min, 5 μM, pH 7.4): 1.22 10-6 cm/s
IC50 (hTRPM8): 6 ± 1 nM
half-life ([2]; mouse, microsomes): 11.3 min
microsomal CLint ([2]; mouse, microsomes): 122 µL/min/mg
remaining at 0 h ([2]; mouse, microsomes): 100%
remaining at 10 min ([2]; mouse, microsomes): 40.8%
remaining at 20 min ([2]; mouse, microsomes): 30.7%
remaining at 0.5 h ([2]; mouse, microsomes): 22.5%
remaining at 1 h ([2]; mouse, microsomes): 10.3%
Emax (mouse α4β2 nAChRs; N2a, read-out: Max Efficacy (Normalized to 100 µM Nicotine), in the presence of 100 µM nicotine, mean ± SEM): 361%
concentration at which maximum increase occurs (mouse α4β2 nAChRs; [4]): 100 µM
Max Efficacy (Normalized to 100 µM Nicotine) (mouse α4β2 nAChRs; in the presence of 100 µM nicotine, mean ± SEM): 360.7 ± 37.7%

O=C(NC1CCc2ccccc2C1)c1ccc(-c2ccccc2)cc1 (stereo not drawn) [VBJ109]
IC50 (hTRPM8): 52 ± 1 nM
concentration at which maximum increase occurs (mouse α4β2 nAChRs; [4]): 50 µM

C[C@H]1O[C@@H](O[C@H]2[C@@H](O)C[C@H](O[C@H]3[C@@H](O)C[C@H](O[C@H]4CC[C@@]5(C)[C@H](CC[C@@H]6[C@@H]5C[C@@H](O)[C@]5(C)[C@@H](C7=CC(=O)OC7)CC[C@]65O)C4)O[C@@H]3C)O[C@@H]2C)C[C@H](O)[C@@H]1O [digoxin, reference compound]
efflux ratio at 120 min, 5 μM (MDR1): 299
Papp at 120 min, 5 μM (MDR1; MDCK-MDR1, pH 7.4, Papp average, A-to-B, 5 μM): 0.0612 ×10⁻⁶ cm/s
Papp at 120 min, 5 μM (MDR1; MDCK-MDR1, pH 7.4, Papp average, B-to-A, 5 μM): 18.3 ×10⁻⁶ cm/s

CN1CCC[C@H]1c1cccnc1 [nicotine, Nicotine ditartrate dihydrate, reference compound]
place preference (in words) (C57BL/6J mice; 0.5 mg/kg nicotine, males and females combined, post hoc Tukey): significant place preference
CPP score (C57BL/6J mice; female mice, 0.5 mg/kg nicotine, intraperitoneal): 127.5
CPP score (C57BL/6J mice; male mice, 0.5 mg/kg nicotine, intraperitoneal): 131.2
T1/2 of nicotine in mice [3]: 6 to 7 min

C[C@]12CC[C@H]3[C@@H](CCC4=CC(=O)CC[C@@]43C)[C@@H]1CC[C@@H]2O [testosterone, reference compound]
half-life ([2]; mouse liver microsomes): 4.58 min
microsomal CLint ([2]; mouse liver microsomes, read-out: CLint): 302 µL/min/mg
